From PubChem BioAssay (NCI)
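Dose response: 5 concentrations. Exposure: 48 h. Format: 96-well plates. Endpoint: linear interpolation; highest concentration if not reached. TGI is the concentration that stops growth completely.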

Legend:
Assay in all cases: NCI tumour cell line growth inhibition, 48 h
PC-3 prostate = system: PC-3 prostate
OVCAR-5 ovarian = system: OVCAR-5 ovarian
SN12C renal = system: SN12C renal
CCRF-CEM leukemia = system: CCRF-CEM leukemia
OVCAR-8 ovarian = system: OVCAR-8 ovarian
BT-549 breast = system: BT-549 breast
KM12 colon = system: KM12 colon
UACC-257 melanoma = system: UACC-257 melanoma
SF-268 CNS = system: SF-268 CNS
TK-10 renal = system: TK-10 renal
UACC-62 melanoma = system: UACC-62 melanoma
SK-MEL-2 melanoma = system: SK-MEL-2 melanoma
SK-MEL-28 melanoma = system: SK-MEL-28 melanoma
MDA-MB-435 = system: MDA-MB-435
HS 578T breast = system: HS 578T breast
HCT-116 colon = system: HCT-116 colon
SK-MEL-5 melanoma = system: SK-MEL-5 melanoma
SW-620 colon = system: SW-620 colon
T-47D breast = system: T-47D breast
HOP-92 NSCLC = system: HOP-92 NSCLC
NCI-H226 lung = system: NCI-H226 lung
SF-539 CNS = system: SF-539 CNS
NCI-H460 lung = system: NCI-H460 lung
LOX IMVI melanoma = system: LOX IMVI melanoma
MOLT-4 leukemia = system: MOLT-4 leukemia
M14 melanoma = system: M14 melanoma
SR leukemia = system: SR leukemia
MCF7 breast = system: MCF7 breast
HCC-2998 colon = system: HCC-2998 colon
NCI/ADR-RES ovarian = system: NCI/ADR-RES ovarian
HL-60(TB) leukemia = system: HL-60(TB) leukemia
786-0 renal = system: 786-0 renal
EKVX NSCLC = system: EKVX NSCLC
NCI-H23 lung = system: NCI-H23 lung
K-562 leukemia = system: K-562 leukemia
HT29 colon = system: HT29 colon
RXF 393 renal = system: RXF 393 renal
HCT-15 colon = system: HCT-15 colon
ACHN renal = system: ACHN renal
A549 NSCLC = system: A549 NSCLC
OVCAR-4 ovarian = system: OVCAR-4 ovarian
OVCAR-3 ovarian = system: OVCAR-3 ovarian
A498 renal = system: A498 renal
COLO 205 colon = system: COLO 205 colon
CAKI-1 renal = system: CAKI-1 renal
MDA-N = system: MDA-N
U251 CNS = system: U251 CNS
MALME-3M melanoma = system: MALME-3M melanoma
SF-295 CNS = system: SF-295 CNS
UO-31 renal = system: UO-31 renal
DU-145 prostate = system: DU-145 prostate
HOP-62 NSCLC = system: HOP-62 NSCLC
IGROV1 ovarian = system: IGROV1 ovarian
SNB-75 CNS = system: SNB-75 CNS
MDA-MB-231 breast = system: MDA-MB-231 breast
NCI-H522 lung = system: NCI-H522 lung
DLD-1 colon = system: DLD-1 colon
RPMI-8226 leukemia = system: RPMI-8226 leukemia
SNB-78 CNS = system: SNB-78 CNS
SK-OV-3 ovarian = system: SK-OV-3 ovarian
HOP-18 NSCLC = system: HOP-18 NSCLC
DMS 273 small cell lung = system: DMS 273 small cell lung
LXFL 529 NSCLC = system: LXFL 529 NSCLC
KM20L2 colon = system: KM20L2 colon
SNB-19 CNS = system: SNB-19 CNS
M19-MEL melanoma = system: M19-MEL melanoma

Question: For COc1cc(C)c(C2NC(=O)c3ccccc3N2)cc1C (stereo not drawn), which TGI (PC-3 prostate) is on record?
Answer: 15.6 µM

Question: And the TGI (OVCAR-5 ovarian)?
Answer: > 24.8 µM

Question: And the TGI (SN12C renal)?
Answer: > 100 µM

Question: What about the TGI (CCRF-CEM leukemia) of the same compound?
Answer: 18.1 µM

Question: And the TGI (OVCAR-8 ovarian)?
Answer: > 66.5 µM

Question: What about the TGI (BT-549 breast) of the same compound?
Answer: 71.4 µM

Question: And the TGI (KM12 colon)?
Answer: > 100 µM

Question: And the TGI (UACC-257 melanoma)?
Answer: > 100 µM

Question: And the TGI (SF-268 CNS)?
Answer: > 100 µM

Question: What about the TGI (TK-10 renal) of the same compound?
Answer: > 100 µM

Question: What about the TGI (UACC-62 melanoma) of the same compound?
Answer: > 100 µM

Question: What about the TGI (SK-MEL-2 melanoma) of the same compound?
Answer: 0.924 µM

Question: And the TGI (SK-MEL-28 melanoma)?
Answer: > 100 µM

Question: What about the TGI (MDA-MB-435) of the same compound?
Answer: 0.209 µM

Question: What about the TGI (HS 578T breast) of the same compound?
Answer: 0.908 µM

Question: What about the TGI (HCT-116 colon) of the same compound?
Answer: 43.1 µM

Question: What about the TGI (SK-MEL-5 melanoma) of the same compound?
Answer: 5.49 µM

Question: What about the TGI (SW-620 colon) of the same compound?
Answer: > 100 µM

Question: What about the TGI (T-47D breast) of the same compound?
Answer: > 100 µM

Question: What about the TGI (HOP-92 NSCLC) of the same compound?
Answer: > 86.5 µM

Question: What about the TGI (NCI-H226 lung) of the same compound?
Answer: 16.5 µM

Question: And the TGI (SF-539 CNS)?
Answer: 0.734 µM

Question: What about the TGI (NCI-H460 lung) of the same compound?
Answer: 26.5 µM

Question: And the TGI (LOX IMVI melanoma)?
Answer: 97.9 µM

Question: And the TGI (MOLT-4 leukemia)?
Answer: 35.8 µM

Question: And the TGI (M14 melanoma)?
Answer: 8.54 µM

Question: And the TGI (SR leukemia)?
Answer: > 8.5 µM

Question: What about the TGI (MCF7 breast) of the same compound?
Answer: > 89 µM

Question: And the TGI (HCC-2998 colon)?
Answer: 25.9 µM

Question: What about the TGI (NCI/ADR-RES ovarian) of the same compound?
Answer: 0.679 µM

Question: And the TGI (HL-60(TB) leukemia)?
Answer: 0.396 µM

Question: And the TGI (786-0 renal)?
Answer: > 100 µM

Question: And the TGI (EKVX NSCLC)?
Answer: > 100 µM

Question: And the TGI (NCI-H23 lung)?
Answer: > 70.2 µM

Question: What about the TGI (K-562 leukemia) of the same compound?
Answer: > 52.2 µM

Question: And the TGI (HT29 colon)?
Answer: 13.6 µM

Question: And the TGI (RXF 393 renal)?
Answer: 8.61 µM

Question: And the TGI (HCT-15 colon)?
Answer: 10 µM

Question: And the TGI (ACHN renal)?
Answer: > 95.4 µM

Question: And the TGI (A549 NSCLC)?
Answer: > 100 µM

Question: And the TGI (OVCAR-4 ovarian)?
Answer: > 82.9 µM

Question: What about the TGI (OVCAR-3 ovarian) of the same compound?
Answer: 0.518 µM

Question: What about the TGI (A498 renal) of the same compound?
Answer: 4.77 µM

Question: And the TGI (COLO 205 colon)?
Answer: 4.64 µM

Question: What about the TGI (CAKI-1 renal) of the same compound?
Answer: 16.2 µM

Question: What about the TGI (MDA-N) of the same compound?
Answer: 0.128 µM

Question: And the TGI (U251 CNS)?
Answer: 13.9 µM

Question: What about the TGI (MALME-3M melanoma) of the same compound?
Answer: > 100 µM

Question: And the TGI (SF-295 CNS)?
Answer: 22.4 µM

Question: And the TGI (UO-31 renal)?
Answer: > 100 µM

Question: And the TGI (DU-145 prostate)?
Answer: 11.6 µM

Question: What about the TGI (HOP-62 NSCLC) of the same compound?
Answer: > 97.1 µM

Question: What about the TGI (IGROV1 ovarian) of the same compound?
Answer: > 100 µM

Question: What about the TGI (SNB-75 CNS) of the same compound?
Answer: 0.496 µM

Question: And the TGI (MDA-MB-231 breast)?
Answer: > 85.7 µM

Question: And the TGI (NCI-H522 lung)?
Answer: 0.713 µM

Question: What does the source list for NNC(=O)C(=O)N/N=C1\CCC(=O)CC1C(=O)CCC(=O)Nc1ccc(Cl)cc1 (stereo not drawn)?
Answer: TGI (DLD-1 colon): > 100 µM; TGI (RPMI-8226 leukemia): > 100 µM; TGI (OVCAR-5 ovarian): > 100 µM; TGI (SNB-78 CNS): > 100 µM; TGI (SN12C renal): > 100 µM; TGI (CCRF-CEM leukemia): > 100 µM; TGI (OVCAR-8 ovarian): > 100 µM; TGI (KM12 colon): > 100 µM; TGI (UACC-257 melanoma): > 100 µM; TGI (SF-268 CNS): > 100 µM; TGI (TK-10 renal): > 100 µM; TGI (UACC-62 melanoma): > 100 µM; TGI (SK-OV-3 ovarian): > 100 µM; TGI (SK-MEL-2 melanoma): > 100 µM; TGI (SK-MEL-28 melanoma): > 100 µM; TGI (HOP-18 NSCLC): > 100 µM; TGI (DMS 273 small cell lung): > 100 µM; TGI (HCT-116 colon): > 100 µM; TGI (SK-MEL-5 melanoma): > 100 µM; TGI (SW-620 colon): > 100 µM; TGI (LXFL 529 NSCLC): > 100 µM; TGI (NCI-H226 lung): > 100 µM; TGI (SF-539 CNS): > 100 µM; TGI (NCI-H460 lung): > 100 µM; TGI (LOX IMVI melanoma): > 100 µM; TGI (MOLT-4 leukemia): > 100 µM; TGI (M14 melanoma): > 100 µM; TGI (KM20L2 colon): > 100 µM; TGI (HCC-2998 colon): > 100 µM; TGI (HL-60(TB) leukemia): > 100 µM; TGI (786-0 renal): > 100 µM; TGI (EKVX NSCLC): > 100 µM; TGI (NCI-H23 lung): > 100 µM; TGI (K-562 leukemia): > 100 µM; TGI (HT29 colon): > 100 µM; TGI (RXF 393 renal): > 100 µM; TGI (HCT-15 colon): > 100 µM; TGI (ACHN renal): > 100 µM; TGI (A549 NSCLC): > 100 µM; TGI (OVCAR-4 ovarian): > 100 µM; TGI (SNB-19 CNS): > 100 µM; TGI (OVCAR-3 ovarian): > 100 µM; TGI (A498 renal): > 100 µM; TGI (COLO 205 colon): > 100 µM; TGI (CAKI-1 renal): > 100 µM; TGI (U251 CNS): > 100 µM; TGI (MALME-3M melanoma): > 100 µM; TGI (SF-295 CNS): > 100 µM; TGI (UO-31 renal): > 100 µM; TGI (IGROV1 ovarian): > 100 µM; TGI (M19-MEL melanoma): > 100 µM; TGI (SNB-75 CNS): > 100 µM
